These results are taken from PubChem BioAssay AID179 (DTP/NCI, 2004).

This experiment has as its system CEM cells HIV-1 protection, formazan growth assay. Nature of the experiment: NCI AIDS Antiviral Assay. As to conditions: for IC50: measured here: growth of uninfected CEM cells. Summed up: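 Screen of anti-HIV-1 activity in human CEM cells using a formazan-based growth measurement at five drug concentrations. Hits with 50% or greater protection were repeated, and confirmation required reproducible complete protection.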

Molecules are shown by their SMILES. Values joined by “and” are separate entries in the source; they are usually repeats but may differ in a detail not shown here. Equal values may be shown once. Active and inactive are the calls of the source.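 The calls were made as follows: active = compounds giving half or more protection of infected cells from virus-caused growth loss, again on retest; inactive = the rest.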 Where a SMILES comes first, the peptide text is derived from it. Bridges are numbered along the chain shown (N, C = ends). [ ]: non-standard residue; d: D form. Orn = NCCC[CH](N)C(=O)O

What is called EC50 is the midpoint of the concentration-response curve. One may read the IC50 as the concentration needed to halve the response being measured. On to `COc1ccc2nc(C)cc(NCCCCCCCCCNc3cc(C)nc4ccc(OC)cc34)c2c1`, for which the EC50 was > 33.1 µM and the IC50 was found to be 0.891 µM.
Regarding `CN(C)C(=O)CC(C(=O)O)c1c[nH]c2ccccc12` (stereo not given), the EC50 is > 309 µM and the 50% inhibitory concentration (IC50) was > 309 µM.
`CC(=O)C(C(C)=O)C1c2ccccc2-n2nc(-c3ccccc3)c(O)c21` (stereo not given): the EC50 is > 100 µM and the half-maximal inhibitory concentration (IC50) was found to be 0.794 µM.
`Cc1ccc2nc(Sc3c([N+](=O)[O-])ncn3C)[nH]c2c1`: the EC50 is > 5.01 µM and the IC50 amounted to 4.79 µM.
Regarding `COc1ccccc1/C=C/c1nc2ccccc2o1`, the EC50 was > 200 µM and the IC50 is 107 µM.
As for `CCc1ccccc1NC(=O)CCc1n[nH]c(=S)o1`, the EC50 is 44.7 µM and the 50% inhibitory concentration (IC50) came to 67.6 µM.
`COC12C[C@H]3CCC([C@H](C)c4ccc5c(c41)CC1[C@H]5C[C@@H](O)C4C[C@@H](O)CC[C@@]41C)N2C3` (stereo not given in full): the EC50 is > 40.7 µM and the IC50 was > 40.7 µM.
In the case of `Cc1nc2c(C#N)c3n(c2c(=O)o1)CCCC3`, the EC50 is > 200 µM and the IC50 was > 200 µM.
Take `Cc1ccccc1N(CCC#N)C1=NN(C(=O)CC(=O)Nc2ccc(Cl)cc2)C(c2ccccc2)C1` (stereo not given): the EC50 is > 501 µM and the half-inhibitory concentration (IC50) is > 501 µM.
As for `CN/N=C/c1c2c(O)c3c(O)c(C)c4c(c3c1O)C(=O)C(C)(O/C=C/C(OC)C(C)C(OC(C)=O)C(C)C(O)C(C)C(O)C(C)/C=C/C=C(/C)C(=O)N2)O4` (stereo not given), the EC50 was > 200 µM and the half-inhibitory concentration (IC50) amounted to 26.3 µM.
As to `COc1cc2cnc3c4cc(OS(=O)(=O)c5ccccc5)ccc4ccc3c2cc1OC`, the EC50 was > 14.5 µM and the half-maximal inhibitory concentration (IC50) was > 14.5 µM.
`CCCN(CCCC(NC(C)=O)C(=O)NCc1ccccc1)C(=O)N(CCCl)N=O` (stereo not given): the result was inactive.
Take `CCC(=O)N1C(=O)C(C)C23c4cc(OC)c(OC)cc4C(=O)N2CCCN13` (stereo not given): the EC50 was > 240 µM and the half-maximal inhibitory concentration (IC50) was > 240 µM.
Turning to `O=S(=O)(c1ccc(Cl)c(Cl)c1)c1ccc(Cl)c(Cl)c1`, the EC50 was > 200 µM and the IC50 is > 200 µM.
For `O=C1CC(C2(c3ccc4c(c3)OCO4)SCCCS2)CO1` (stereo not given), the EC50 is > 155 µM and the half-maximal inhibitory concentration (IC50) is > 155 µM.
`O=C1NC(=O)N2CC(CI)OC2C1c1ccccc1` (stereo not given): the EC50 is > 97.7 µM and the IC50 is > 97.7 µM.
On to `CN(C)CCCC12CCCCC1=Nc1ccccc12` (stereo not given), for which the EC50 was > 200 µM and the half-inhibitory concentration (IC50) came out at 7.76 µM.
In the case of `O=C(CC1(O)C(=O)Nc2c(Cl)cc(Cl)cc21)c1ccc([N+](=O)[O-])cc1` (stereo not given), the EC50 is > 178 µM and the IC50 worked out at 93.3 µM.
In the same order, the values of `CCN=C1NN=C(c2ccccc2)c2cc(Cl)ccc2N1` are > 120 µM and 21.9 µM.
Turning to `CCOC(=O)c1c(NC(=O)c2ccccc2)c(C#N)c2n1CCCCC2`, the EC50 was > 100 µM and the half-maximal inhibitory concentration (IC50) was > 100 µM.
For `CCc1cc2c(c3c1CCCC3)CC1(Cc3ccc(C(=O)OC)cc3C1)C2` (stereo not given), the EC50 was > 200 µM and the concentration for half-maximal inhibition (IC50) is > 200 µM.
Consider `CN(CCSSCCN(C)C(N)=S)C(N)=S`, for which the EC50 is > 200 µM and the half-inhibitory concentration (IC50) is > 200 µM.
With `CC1=C(/C=C/C(C)=C/C=C/C(C)=C/C=C/C=C(C)/C=C/C=C(C)/C=C/C=C(C)/C=C/C=C(\C)C(=O)O)C(C)(C)CCC1`, the EC50 was > 4.79 µM and the IC50 is > 4.79 µM.
Consider `COc1cc(C[S+]2CCCC2)c(SC)cc1C[S+]1CCCC1`, for which the EC50 is > 83.2 µM and the IC50 is > 83.2 µM.
Regarding `COC(=O)C1C(O)CCC2CN3CCc4c([nH]c5ccccc45)C3CC21` (stereo not given), the EC50 was > 200 µM and the half-maximal inhibitory concentration (IC50) turned out to be 70.8 µM.
Turning to `COc1cc(OC)cc(-n2c(N)c(-c3nc4ccccc4s3)c3ccc([N+](=O)[O-])cc3c2=O)c1`, the EC50 is > 200 µM and the half-inhibitory concentration (IC50) worked out at 148 µM.
Take `C[N+]1(Cc2ccco2)CCCCC1`: the EC50 was > 813 µM and the concentration for half-maximal inhibition (IC50) was > 813 µM.
On to `CSc1nc2c(c(O)c(C)c(=O)n2C2OCC(OC(C)=O)C(OC(C)=O)C2OC(C)=O)c(=O)n1C` (stereo not given), for which the EC50 was > 70.8 µM and the IC50 was > 70.8 µM.
As for `CN1C(=O)CN(NC(=O)C2=C(O)c3ccc(Br)cc3S(=O)(=O)N2)C1=S`, the EC50 is > 200 µM and the half-inhibitory concentration (IC50) turned out to be 51.3 µM.
On to `CC(C)(C)[Si](C)(C)OCC1OC(n2ccc(=O)[nH]c2=O)C(O[Si](C)(C)C(C)(C)C)C1CC#N` (stereo not given), for which the EC50 was > 200 µM, the outcome was inactive and the 50% inhibitory concentration (IC50) is 11.7 µM.
For `Cc1cc[n+]2n1CC(O)C2` (stereo not given), the result was inactive.
For the compound `CC/C(=N/O)c1ccc(Br)s1`, the outcome was inactive.
On to `CCCCP(CCCC)(CCCC)=C(C(=O)OC)C(C(=O)OC)=C1SC(C(=O)OC)=C(C(=O)OC)S1`, for which the EC50 is > 200 µM and the IC50 came to 33.1 µM.
As for `CNC1=C2NC(=O)/C(C)=C\C=C\C(C)C(O)C(C)C(O)C(C)C(OC(C)=O)C(C)C(OC)/C=C/OC3(C)Oc4c(C)c(O)c(c(c4C3=O)C1=O)C2=O` (stereo not given), the EC50 was > 200 µM and the IC50 is 3.8 µM.
As to `NC(=O)C1CCCNC(=O)CC(NC(=O)C(N)Cc2ccc(O)cc2)C(=O)NC(Cc2ccccc2)C(=O)N1` (stereo not given) (H-YDF[Orn]-NH2; lactam 2-4; configuration not given here), the EC50 is > 100 µM and the concentration for half-maximal inhibition (IC50) is > 100 µM.
With `NC(N)=NS(=O)(=O)c1ccc(NCCc2c3ccccc3nc3ccccc23)cc1`, the EC50 is > 200 µM and the concentration for half-maximal inhibition (IC50) came to 66.1 µM.
For the compound `COC1=CC(=O)c2c(O)c(CO)cc(O)c2C1=O`, the outcome was inactive.
In the case of `COc1c(N2CCCCC2)c2c(=O)c3ccccc3oc2c2c3ccccc3n(C)c12`, the EC50 was 170 µM and the IC50 was determined as 195 µM.
Take `CN(C)C1C(=O)C(C(N)=O)=C(O)C2(O)C(=O)C3=C(O)c4c(O)cccc4C(C)(O)C3CC12` (stereo not given): the EC50 is > 562 µM; the IC50 was 40.7 µM and 10.7 µM.
Turning to `CC(=O)OC1C[C@](C)(O)/C=C/CC(C)/C=C/[C@@]2(C)CCC(C(C)(C)O)C12` (stereo not given in full), the outcome was inactive.
As for `C=CCOC(=O)Cn1ccc(=O)[nH]c1=O`, the EC50 was > 200 µM and the IC50 is > 200 µM.
As to `CC(C)=CCC[C@@H](C)C1=C(O)C(N)=C(C)C(=O)C1=O`, the EC50 was > 200 µM and the IC50 was 12 µM.
In the same order, the values of `C=C(C)[C@H]1Cc2c(ccc3c2O[C@@H]2COc4cc(OC)c(OC)cc4[C@@H]2C3=O)O1` are > 2 µM and 0.0479 µM.
As for `COc1ccc(N2C(=O)c3cc(C)cnc3S2(=O)=O)cc1`, the EC50 is 141 µM and the 50% inhibitory concentration (IC50) is > 200 µM.
With `CC1OC(OC2C(O)C(O)C(N=C(N)N)C(O)C2N=C(N)N)C(OC2OC(CO)C(O)C(O)C2N(C)N=O)C1(O)C=O` (stereo not given), the result was inactive.
Take `O=C1CSC(/C(=C\c2ccc(Cl)cc2)c2nc3ccccc3[nH]2)=N1`: the EC50 is > 10 µM and the IC50 is > 10 µM.
`CN(C)C(=O)c1cccc(COc2ccc(N3C(N)=NC(N)=NC3(C)C)cc2Cl)c1`: the EC50 is > 468 µM and the IC50 was found to be 0.148 µM.
In the same order, the values of `CCCCCCCCCCCCCc1nn[nH]n1` are > 102 µM and > 100 µM.
On to `O=[N+]([O-])/C=C/c1c[nH]c2c1ccc1ccccc12`, for which the EC50 is > 200 µM and the IC50 came to 4.27 µM.
As to `CC(=NC1C2CC3CC(C2)CC1C3)c1ccc(N=NC2C(=O)NN=C2C)cc1` (stereo not given), the EC50 is > 10 µM and the half-maximal inhibitory concentration (IC50) was > 10 µM.
Turning to `COc1cc2c(cc1OC)C(Cc1ccc(Oc3cc(CC4c5cc(OC)c(OC)cc5CCN4C)ccc3O)cc1)N(C)CC2` (stereo not given), the result was inactive.
`CCOC(=O)c1oc2c(OC)ccc3c2c1CCC3`: the result was inactive.
Regarding `CCN(CC)CC[NH-].O=C([O-])[O-].O=C([O-])[O-].[Co+3].[K+]`, the EC50 is > 200 µM and the IC50 turned out to be 18.6 µM.
In the case of `CC(=O)OCCC1c2ccccc2-n2nc(-c3ccccc3)c(O)c21` (stereo not given), the EC50 is > 200 µM and the IC50 came out at 11.2 µM.
With `COC(=O)C1C2CC3C(C2=O)C31` (stereo not given), the EC50 was > 200 µM and the IC50 was > 200 µM.
As for `CC(=O)OC1CC2CCC3C(CCC4(C)C3CC([N+]3(C)CCCCC3)C4OC(C)=O)C2(C)CC1[N+]1(C)CCCCC1` (stereo not given), the EC50 is > 200 µM and the concentration for half-maximal inhibition (IC50) is > 200 µM.
For the compound `O=C(c1no[n+]([O-])c1C(=O)c1csc2ccccc12)c1csc2ccccc12`, the EC50 was > 200 µM and the half-maximal inhibitory concentration (IC50) was determined as 1.05 µM.
In the same order, the values of `CCc1n[nH]c(=O)n1-c1ccncc1` are > 200 µM and > 200 µM.
Take `CSc1ncc2c(C#N)c3ccccn3c(=O)c2n1`: the EC50 was > 200 µM and the half-inhibitory concentration (IC50) is > 200 µM.
As for `CC(=O)NNc1nc(C)c(C(=O)NNC(=O)C(=O)Nc2c(C)cccc2C)s1`, the EC50 was > 89.1 µM and the half-inhibitory concentration (IC50) was determined as 28.2 µM.
With `O=C(O)c1cc(=O)[nH]c(O)c1N=Nc1ccc(/C=C/c2ccc(N=Nc3c(C(=O)O)cc(=O)[nH]c3O)cc2S(=O)(=O)O)c(S(=O)(=O)O)c1`, the EC50 was > 200 µM and the IC50 was 102 µM.
As to `CSc1c(S(C)=O)[nH]c2cc(Br)cc(Br)c12` (stereo not given), the outcome was inactive.
`Cn1nc(-c2ccc(Cl)cc2)[n+]([O-])c2c(=O)n(C)c(=O)nc1-2`: the EC50 is > 200 µM and the IC50 stood at 3.31 µM.
Regarding `NC(CO)Cc1cnc[nH]1` (stereo not given), the EC50 was > 200 µM and the IC50 was > 200 µM.
Regarding `CCCc1cc(=O)oc2c3c(cc(OC(C)CC)c12)O[C@H](C)[C@@H](C)[C@@H]3O` (stereo not given in full), the half-maximal effective concentration (EC50) is 3.63 µM and the 50% inhibitory concentration (IC50) turned out to be 37.2 µM.
In the same order, the values of `Cc1ccccc1N1C(=O)/C(=C/c2ccc(N(CCC#N)CCC#N)cc2)N=C1c1cc([N+](=O)[O-])ccc1Cl` are > 9.77 µM and > 9.77 µM.
As for `Cc1ccc(OCC(=O)N2N=C(c3ccccc3)CC2(O)c2ccccc2)cc1` (stereo not given), the EC50 was > 25.7 µM and the half-inhibitory concentration (IC50) is > 25.7 µM.
Regarding `Cc1cc2nc(NS(=O)(=O)c3cc(C)c(Cl)cc3S)[nH]c2cc1C`, the EC50 is > 200 µM and the IC50 was > 200 µM.
For the compound `CCN1CCN(c2ccc(Nc3ccnc4ccc5nn(C)nc5c34)cc2)CC1`, the EC50 was > 18.6 µM and the concentration for half-maximal inhibition (IC50) came to 7.24 µM.
